Source: patent US7456187B2, “Furanopyrimidine compounds as potassium ion channel inhibitors” (Xention Limited, priority 2004, dated 2008)

Experiments:
human Kv1.5 = target: T1, human Kv1.5 (Homo sapiens, UniProt P22460); test: Kv1.5 Autopatch Electrophysiology (whole cell patch-clamp); format: cell-based; details: compound at 1 μM; cells stably transfected with human Kv1.5; room temperature (22-24° C.); voltage step to 0 mV for 1000 ms from -80 mV, total charge
T1 construct: expressed in transfected cells
Procedure: Cells stably transfected with cDNA for human Kv1.5 (in pEF6::VA-His-TOPO) were grown in Dulbecco's Modified Eagle media (DMEM) alpha supplemented with 10% Fetal Calf Serum (FCS), 20 μl/ml penicillin (5000 U/ml) streptomycin (5000 μg/ml), 10 μl/ml [100×] glutamine, and blasticidin (7.5 μg/ml).
The external bathing solution contained (in mM): 150 NaCl, 10 KCl, […], 3 MgCl2, 1 CaCl2, 10 HEPES, pH 7.4. Patch pipettes were filled with an electrode solution of composition (in mM): 160 KCl, 0.5 MgCl2, 10 HEPES, 1 EGTA, pH 7.4 with KOH.
Compounds were dissolved in DMSO (100%) and made up in the external bather at a concentration of 1 μM. All experiments were conducted at room temperature (22-24° C.).
A cell suspension (10 ml), with a density of 100,000 cells/ml, was aliquoted into a 15 ml centrifuge tube and transferred to an incubator (37° C., 5% CO2) for approximately one hour before use. Following 60 min incubation, a tube was taken and centrifuged at 1000 rpm for 4 mins at room temperature. 9.5 ml supernatant was thene discarded, leaving a cell pellet at the bottom of the tube. The pellet was then resuspended using 100 μl of cold (4° C.), filtered (0.22 μm), 0.2% BSA/bather solution (0.02 g BSA/10 ml bather). The bottom of the tube was manually agitated gently until the solution became cloudy with cells. The 100 μl cell resuspension solution was then stored on the bench at 4° C. (using a Peltier-based temperature control device) until used.
A length of capillary glass (1B150F-4, WPI) was dipped into the cell suspension solution, such that ˜3 cm column of fluid was taken up by capillary action. An Ag/AgCl wire was dropped into the non-dipped end of the capillary also. The outside of the solution-filled end of the capillary was then dried and the capillary was loaded into the AutoPatch™.
Borosilicate glass patch pipettes (from 1.5 mm OD, thin-walled filamented, GC150-TF capillary glass, Harvard) were pulled using a DMZ pipette puller (Zeitz Instruments), and were back-filled using the internal pipette solution, being careful that no bubbles remain at the tip or in the body of the pipette. Patch pipettes typically had resistances of 2.3-3.5 MΩ. Once filled, the pipette tip and a proportion of the shaft (˜15 mm) were dipped into Sigmacote (Sigma). The recording pipette was then loaded into the AutoPatch™. Automated patch-clamping was initiated by the operator, but thereafter AutoPatch.exe continued the experiment providing that pre-set conditions and criteria were satisfied.
Whole cell patch-clamp recordings were made using the AutoPatch™ rig, which incorporated an EPC9 amplifier (HEKA, Germany) under control of Pulse software (v8.54, HEKA, Germany), a motion controller with 2 translators (Newport, UK), valve controller (VF1) and a c-level suction device all at room temperature (22-24° C.). This equipment was completely under the control of AutoPatch.exe and operator intervention was only made when there was a requirement to refill the drug reservoirs or to prevent the loss of a cell due to a technical error. Cells with an Rseries greater than 18MΩ were discounted from the experiment.
Qualification stages prior to perfusion and drug application ensured that the observed current met the criteria for the experiment. Only those cells with an IK>[…] were used for experiments. Cells were continuously perfused with external solution at a flow rate of 1.8-2 ml/minute. […] Online analysis of the hKv1.5 current during the application of compounds was performed by the AutoPatch™ software.
Electrophysiology voltage-step protocols and analysis of data was performed as follows. Data was sampled at 5 kHz, and filtered with a −3 dB bandwidth of 2.5 kHz. Cells were held at a voltage of −80 mV. Currents were evoked to a voltage step for 1000 ms in duration at 0 mV every 5 s. Currents were analysed using Pulsefit software (v8.54, HEKA, Germany), with the total charge measured during the whole of the voltage step. […]

T1 sequence (P22460 whole entry): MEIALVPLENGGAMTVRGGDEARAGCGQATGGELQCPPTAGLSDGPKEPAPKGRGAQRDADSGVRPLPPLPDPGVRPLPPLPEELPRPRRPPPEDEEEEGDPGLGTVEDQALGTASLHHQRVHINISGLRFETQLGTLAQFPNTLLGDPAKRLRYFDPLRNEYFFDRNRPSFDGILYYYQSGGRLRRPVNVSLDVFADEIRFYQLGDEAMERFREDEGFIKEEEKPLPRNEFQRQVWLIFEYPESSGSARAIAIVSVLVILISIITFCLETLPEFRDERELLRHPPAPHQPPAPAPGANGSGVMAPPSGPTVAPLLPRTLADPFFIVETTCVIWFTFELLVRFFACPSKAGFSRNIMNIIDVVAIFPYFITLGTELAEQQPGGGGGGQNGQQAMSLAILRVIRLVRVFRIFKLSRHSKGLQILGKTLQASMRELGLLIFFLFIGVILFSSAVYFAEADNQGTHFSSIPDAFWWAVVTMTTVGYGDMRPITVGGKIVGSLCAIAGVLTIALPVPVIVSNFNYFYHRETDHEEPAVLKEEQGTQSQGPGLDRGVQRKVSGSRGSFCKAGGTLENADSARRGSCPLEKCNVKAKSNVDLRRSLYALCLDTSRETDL

SMILES	inhibition at 1 µM (human Kv1.5) [%]	melting point [°C]	% Inhibition @1 (μM) (human Kv1.5) [%]
Fc1ccc(-c2coc3ncnc(NCc4ccccn4)c23)cc1 [Example 21, 5-(4-Fluorophenyl)-N-(pyridin-2-ylmethyl)furo[2,3-d]pyrimidin-4-amine]	39.8	162 to 164	–
c1ccc(-c2coc3ncnc(NCc4ccccn4)c23)cc1 [Example 22, 5-Phenyl-N-(pyridin-2′-ylmethyl)furo[2,3-d]pyrimidin-4-amine]	–	–	54.00
Clc1ccc(-c2coc3ncnc(NCc4ccccn4)c23)cc1 [Example 23, 5-(4-Chlorophenyl)-N-(pyridin-2′-ylmethyl)furo[2,3-d]pyrimidin-4-amine]	–	–	83.80
COc1ccc(-c2coc3ncnc(NCc4ccccn4)c23)cc1OC [Example 24, 5-(3,4-Dimethoxyphenyl)-N-(pyridin-2′-ylmethyl)furo[2,3-d]pyrimidin-4-amine]	–	–	15.81
c1ccc(CNc2ncnc3occ(-c4ccc5c(c4)OCO5)c23)nc1 [Example 25, 5-(1,3-Benzodioxol-5′-yl)-N-(pyridin-2′-ylmethyl)furo[2,3-d]pyrimidin-4-amine]	–	–	65.17
Cc1oc2ncnc(NCc3ccccn3)c2c1-c1ccccc1 [Example 26, 6-Methyl-5-phenyl-N-(pyridin-2′-ylmethyl)furo[2,3-d]pyrimidin-4-amine]	–	–	83.00
COCCNc1nc(NCc2ccccn2)c2c(-c3ccccc3)coc2n1 [Example 41, N^2-(2-Methoxyethyl)-5-phenyl-N^4-pyridin-2-ylmethyl-furo[2,3-d]pyrimidine-2,4-diamine]	99	96 to 98	–
c1ccc(-c2coc3nc(N4CCOCC4)nc(NCc4ccccn4)c23)cc1 [Example 42, (2-Morpholin-4-yl-5-phenyl-furo[2,3-d]pyrimidin-4-yl)-puridin-2-ylmethyl-amine]	–	–	99.00
OCCN(CCO)c1nc(NCc2ccccn2)c2c(-c3ccccc3)coc2n1 [Example 43, 2-((2-Hydroxyethyl)-{5-Phenyl-4-[(pyridine-2-ylmethyl)-amino]-furo[2,3-d]pyrimidin-2-yl}-amino)-ethanol]	82	–	–
OCC(CO)Nc1nc(NCc2ccccn2)c2c(-c3ccccc3)coc2n1 [Example 44, 2-{5-Phenyl-4-[(pyridin-2-ylmethyl)-amino]furo[2,3-d]pyrimidin-2-ylamino}-propane-1,3-diol]	75	–	–
OCCN(CCO)c1nc(NCc2ccccn2)c2c(-c3ccc(F)cc3)coc2n1 [Example 45, 2-((2-Hydroxyethyl)-{5-(4-fluorophenyl)-4-[(pyridine-2-ylmethyl)-amino]-furo[2,3-d]pyrimidin-2-yl}-amino)-ethanol]	42	–	–
CN(C)c1nc(NCc2ccccn2)c2c(-c3ccccc3)coc2n1 [Example 46, N^2,N^2-Dimethyl-5-phenyl-N^4-pyridin-2-ylmethyl-furo[2,3-d]pyrimidine-2,4-diamine]	99	108 to 110	–
Cc1cccc(CNc2nc(N(C)C)nc3occ(-c4ccccc4)c23)n1 [Example 47, N^2,N^2-Dimethyl-N^4-(6-methyl-pyridin-2-ylmethyl)-5-phenyl-furo[2,3-d]pyrimidine-2,4-diamine]	98	52 to 54	–
CN(C)c1nc(NCc2ccco2)c2c(-c3ccccc3)coc2n1 [Example 48, N^4-Furan-2-ylmethyl-N^2,N^2-dimethyl-5-phenyl-furo[2,3-d]pyrimidine-2,4-diamine]	98	–	–
Cc1oc2nc(N(C)C)nc(NCc3ccccn3)c2c1-c1ccccc1 [Example 49, 6,N^2,N^2-Trimethyl-5-phenyl-N4-pyridin-2-ylmethyl-furo[2,3-d]pyrimidine-2,4-diamine]	75	–	–
Cc1oc2nc(N(C)C)nc(NCc3ccccn3)c2c1-c1ccc(F)cc1 [Example 50, 5-(4-Fluorophenyl)-6,N^2,N^2-trimethyl-N^4-pyridin-2-ylmethyl-furo[2,3-d]pyrimidine-2,4-diamine]	32	107 to 109	–
COCCOc1nc(NCc2ccccn2)c2c(-c3ccccc3)coc2n1 [Example 51, [2-(2-Methoxyethoxy)-5-phenyl-furo[2,3-d]pyrimidin-4-yl]-pyridin-2-ylmethylamine]	99	97 to 99	–
